Assay results: patent publication US20230129359A1, “MUSCARINIC RECEPTOR 4 ANTAGONISTS AND METHODS OF USE” (Neurocrine Biosciences, Inc., priority 2020, published 2023)

These compounds were tested against T1, human M4 receptor (Homo sapiens, UniProt P08173) (assay: Radioligand ([3H]N-methylscopolamine) binding assay, membranes from CHO cells expressing human M4 receptor). Conditions: Ki against human M4 receptor; membranes from CHO cells; tritiated N-methylscopolamine 1.5 nM; read-out: K.
T1 construct: expressed in transfected cells; host or cells: CHO cells
T1 sequence (P08173 1-479): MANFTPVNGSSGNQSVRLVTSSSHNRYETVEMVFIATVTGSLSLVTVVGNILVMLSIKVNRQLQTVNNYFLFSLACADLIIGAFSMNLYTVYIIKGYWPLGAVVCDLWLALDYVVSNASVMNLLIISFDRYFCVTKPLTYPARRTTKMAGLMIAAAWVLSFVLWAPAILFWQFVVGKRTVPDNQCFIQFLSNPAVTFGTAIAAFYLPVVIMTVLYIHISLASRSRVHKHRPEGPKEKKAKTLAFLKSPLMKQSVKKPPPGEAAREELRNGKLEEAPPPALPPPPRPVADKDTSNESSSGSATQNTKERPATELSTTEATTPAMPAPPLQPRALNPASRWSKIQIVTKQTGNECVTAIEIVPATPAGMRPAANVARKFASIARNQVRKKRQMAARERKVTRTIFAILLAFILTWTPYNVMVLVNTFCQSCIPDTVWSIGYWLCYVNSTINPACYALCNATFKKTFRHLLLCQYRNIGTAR
Method in brief: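 Competition binding used CHO-cell membranes expressing human M4 with 1.5 nM [3H]N-methylscopolamine and twelve compound concentrations ([…]). Incubation was 90 minutes at 37 °C in 50 mM HEPES, 100 mM NaCl, 5 mM MgCl2, 1 mM EDTA, pH 7.4. Bound ligand was collected by filtration onto PEI-treated glass fibre for Ki.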

Row | Ki | Structure (SMILES)
1 | < 10 nM | CCc1cnc(N2C[C@@H](C)N(C(=O)OC3CC4(C3)CN(Cc3ccccc3)C4)[C@@H](C)C2)nc1 [Compound 497, 2-benzyl-2-azaspiro[3.3]heptan-6-yl (2R,6S)-4-(5-ethylpyrimidin-2-yl)-2,6-dimethylpiperazine-1-carboxylate]
2 | < 10 nM | C[C@@H]1CN(c2ncc(OC(F)(F)F)cn2)C[C@H](C)N1C(=O)OC1CC2(C1)CN(Cc1ccccc1)C2 [Compound 498, 2-benzyl-2-azaspiro[3.3]heptan-6-yl (2R,6S)-2,6-dimethyl-4-[5-(trifluoromethoxy)pyrimidin-2-yl]piperazine-1-carboxylate]
3 | < 10 nM | CC(C)c1cnc(N2C[C@@H](C)N(C(=O)OC3CC4(C3)CN(Cc3ccccc3)C4)[C@@H](C)C2)nc1 [Compound 505, 2-benzyl-2-azaspiro[3.3]heptan-6-yl (2R,6S)-2,6-dimethyl-4-[5-(rpopan-2-yl)pyrimidin-2-yl]piperazine-1-carboxylate]
4 | < 10 nM | C[C@@H]1CN(c2ncc(C3CC3)cn2)C[C@H](C)N1C(=O)OC1CC2(C1)CN(Cc1ccccc1)C2 [Compound 506, 2-benzyl-2-azaspiro[3.3]heptan-6-yl (2R,6S)-4-(5-cyclopropylpyrimidin-2-yl)-2,6-dimethylpiperazine-1-carboxylate]
5 | 10 to 100 nM | C#Cc1cnc(N2C[C@@H](C)N(C(=O)OC3CC4(C3)CN(Cc3ccccc3)C4)[C@@H](C)C2)nc1 [Compound 508, 2-benzyl-2-azaspiro[3.3]heptan-6-yl (2R,6S)-4-(5-ethynylpyrimidin-2-yl)-2,6-dimethylpiperazine-1-carboxylate]
6 | < 10 nM | C[C@@H]1CN(c2ccc(C(F)(F)F)cc2)C[C@H](C)N1C(=O)OC1CC2(C1)CN(Cc1ccccc1)C2 [Compound 514, 2-benzyl-2-azaspiro[3.3]heptan-6-yl (2R,6S)-2,6-dimethyl-4-[4-(trifluoromethyl)phenyl]pipera-zine-1-carboxylate]
7 | 100 to 1000 nM | COc1ccc(N2C[C@@H](C)N(C(=O)OC3CC4(C3)CN(Cc3ccccc3)C4)[C@@H](C)C2)cc1 [Compound 524, 2-benzyl-2-azaspiro[3.3]heptan-6-yl (2R,6S)-4-(4-methoxyphenyl)-2,6-dimethylpiperazine-1-carboxylate]
8 | 10 to 100 nM | Cc1cc(N2C[C@@H](C)N(C(=O)OC3CC4(C3)CN(Cc3ccccc3)C4)[C@@H](C)C2)ccc1F [Compound 525, 2-benzyl-2-azaspiro[3.3]heptan-6-yl (2R,6S)-4-(4-fluoro-3-methylphenyl)-2,6-dimethylpiperazine-1-carboxylate]
9 | 100 to 1000 nM | COc1cc(N2C[C@@H](C)N(C(=O)OC3CC4(C3)CN(Cc3ccccc3)C4)[C@@H](C)C2)ccc1C#N [Compound 526, 2-benzyl-2-azaspiro[3.3]heptan-6-yl (2R,6S)-4-(4-cyano-3-methoxyphenyl)-2,6-dimethylpiperazine-1-carboxylate]
10 | < 10 nM | C[C@@H]1CN(c2ccc(C(F)(F)F)cc2)[C@@H](C)CN1C(=O)OC1CC2(C1)CN(Cc1ccccc1)C2 [Compound 527, 2-benzyl-2-azaspiro[3.3]heptan-6-yl (2R,5S)-2,5-dimethyl-4-[4-(trifluoromethyl)phenyl]pipera-zine-1-carboxylate]
11 | 10 to 100 nM | C[C@@H]1CN(c2ccc(C(F)(F)F)cc2)CCN1C(=O)OC1CC2(C1)CN(Cc1ccccc1)C2 [Compound 528, 2-benzyl-2-azaspiro[3.3]heptan-6-yl (2R)-2-methyl-4-[4-(trifluoromethyl)phenyl]pipera-zine-1-carboxylate]

Further lines, the compound ahead of its results:

Row | Structure (SMILES) | Ki
12 | C[C@@H]1CN(c2cnc(C(F)(F)F)cn2)[C@@H](C)CN1C(=O)OC1CC2(C1)CN(Cc1ccc(Cl)cc1)C2 [Compound 480, 2-[(4-chlorophenyl)methyl]-2-azaspiro[3.3]heptan-6-yl (2R,5S)-2,5-dimethyl-4-[5-(trifluoromethyl)pyrazin-2-yl]piperazine-1-carboxylate] | 10 to 100 nM
13 | C[C@@H]1CN(c2ncc(C(F)(F)F)cn2)[C@@H](C)CN1C(=O)OC1CC2(C1)CN(Cc1ccc(Cl)cc1)C2 [Compound 482, 2-[(4-chlorophenyl)methyl]-2-azaspiro[3.3]heptan-6-yl (2R,5S)-2,5-dimethyl-4-[5-(trifluoromethyl)pyrimidin-2-yl]piperazine-1-carboxylate] | < 10 nM
14 | C[C@@H]1CN(c2ncc(C#N)cn2)CCN1C(=O)OC1CC2(C1)CN(Cc1ccc(Cl)cc1)C2 [Compound 483, 2-[(4-chlorophenyl)methyl]-2-azaspiro[3.3]heptan-6-yl (2R)-4-(5-cyanopyrimidin-2-yl)-2-methylpiperazine-1-carboxylate] | 100 to 1000 nM
15 | C[C@@H]1CN(c2ncc3cc(F)ccc3n2)[C@@H](C)CN1C(=O)OC1CC2(C1)CN(Cc1ccccc1)C2 [Compound 484, 2-benzyl-2-azaspiro[3.3]heptan-6-yl (2R,5S)-4-(6-fluoroquinazolin-2-yl)-2,5-dimethylpiperazine-1-carboxylate] | < 10 nM
16 | C[C@@H]1CN(c2ncc(C(=O)N(C)C)cn2)C[C@H](C)N1C(=O)OC1CC2(C1)CN(Cc1ccccc1)C2 [Compound 489, 2-benzyl-2-azaspiro[3.3]heptan-6-yl (2R,6S)-4-[5-(dimethylcarbamoyl)pyimidin-2-yl]-2,6-dimethylpiperazine-1-carboxylate] | 100 to 1000 nM
17 | O=C(OC1CC2(C1)CN(Cc1ccccc1)C2)N1CC2COCC(C1)N2c1ncc(C(F)(F)F)cn1 [Compound 495, 2-benzyl-2-azaspiro[3.3]heptan-6-yl 9-[5-(trifluoromethyl)pyrimidin-2-yl]-3-oxa-7,9-diazabicyclo[3.3.1]hnonane-7-carboxylate] | 10 to 100 nM
18 | O=C(OC1CC2(C1)CN(Cc1ccccc1)C2)N1CC2COCC(C1)N2c1cnc(C(F)(F)F)cn1 [Compound 496, 2-benzyl-2-azaspiro[3.3]heptan-6-yl 9-[5-(trifluoromethyl)pyrazin-2-yl]-3-oxa-7,9-diazabicyclo[3.3.1]nonane-7-carboxylate] | 100 to 1000 nM
19 | C[C@@H]1CN(c2ncc(OCC3CC3)cn2)C[C@H](C)N1C(=O)OC1CC2(C1)CN(Cc1ccccc1)C2 [Compound 499, 2-benzyl-2-azaspiro[3.3]heptan-6-yl (2R,6S)-4-[5-(cyclopropylmethoxy)pyrimidin-2-yl]-2,6-dimethylpiperazine-1-carboxylate] | < 10 nM
20 | C[C@@H]1CN(c2ncc(C(F)(F)F)cn2)[C@@H](C)CN1C(=O)OC1CC2(C1)CN(Cc1ccc(S(C)(=O)=O)cc1)C2 [Compound 501, 2-[(4-methanesulfonylphenyl)methyl]-2-azaspiro[3.3]heptan-6-yl (2R,56S)-2,5-dimethyl-4-[5-(trifluoromethyl)pyrimidin-2-yl]piperazine-1-carboxylate] | 100 to 1000 nM
21 | C[C@@H]1CN(c2cnc(C(F)(F)F)cn2)[C@@H](C)CN1C(=O)OC1CC2(C1)CN(Cc1ccc(S(C)(=O)=O)cc1)C2 [Compound 503, 2-[(4-methanesulfonylphenyl)methyl]-2-azaspiro[3.3]heptan-6-yl (2R,5S)-2,5-dimethyl-4-[5-(trifluoromethyl)pyrazin-2-yl]piperazine-1-carboxylate] | 100 to 1000 nM
22 | CCCc1cnc(N2C[C@@H](C)N(C(=O)OC3CC4(C3)CN(Cc3ccccc3)C4)[C@@H](C)C2)nc1 [Compound 504, 2-benzyl-2-azaspiro[3.3]heptan-6-yl (2R,6S)-2,6-dimethyl-4-(5-propylpyrimidin-2-yl)piperazine-1-carboxylate] | < 10 nM
